In patent publication US9963464B2, “Macrocyclic compounds” (Bayer Pharma Aktiengesellschaft, priority 2014, dated 2018):
Where two headings read alike, the source gives them in different places.

Assays:
CDK2/CycE = biological target: T1, CDK2/CycE (Homo sapiens, UniProt P24941); test: CDK2/CycE high ATP kinase assay (TR-FRET, Method 2b); type: biochemical; settings: 2 mM ATP
T1 construct: GST; purchased ProQinase GmbH (Freiburg, Germany); host or cells: insect cells (Sf9)
Method: 2b. CDK2/CycE High ATP Kinase Assay:
CDK2/CycE-inhibitory activity of compounds of the present invention at 2 mM adenosine-tri-phosphate (ATP) was quantified employing the CDK2/CycE TR-FRET (TR-FRET=Time Resolved Fluorescence Resonance Energy Transfer) assay as described in the following paragraphs.
Recombinant fusion proteins of GST and human CDK2 and of GST and human CycE, expressed in insect cells (Sf9) and purified by Glutathion-Sepharose affinity chromatography, were purchase from ProQinase GmbH (Freiburg, Germany). As substrate for the kinase reaction biotinylated peptide biotin-Ttds-YISPLKSPYKISEG (C-terminus in amid form) was used which can be purchased e.g. from the company JERINI peptide technologies (Berlin, Germany).
For the assay 50 nl of a 100 fold concentrated solution of the test compound in DMSO was pipetted into a black low volume 384 well microtiter plate (Greiner Bio-One, Frickenhausen, Germany), 2 μl of a solution of CDK2/CycE in aqueous assay buffer [50 mM Tris/HCl pH 8.0, 10 mM MgCl2, 1.0 mM dithiothreitol, 0.1 mM sodium ortho-vanadate, 0.01% (v/v) Nonidet-P40 (Sigma)] were added and the mixture was incubated for 15 min at 22° C. to allow pre-binding of the test compounds to the enzyme before the start of the kinase reaction. […] The concentration of CDK2/CycE was adjusted depending of the activity of the enzyme lot and was chosen appropriate to have the assay in the linear range, typical concentrations were in the range of 15 ng/ml. The reaction was stopped by the addition of 5 μl of a solution of TR-FRET detection reagents (0.2 μM streptavidine-XL665 [Cisbio Bioassays, Codolet, France] and 1 nM anti-RB(pSer807/pSer811)-antibody from BD Pharmingen [#558389] and 1.2 nM LANCE EU-W1024 labeled anti-mouse IgG antibody [Perkin-Elmer, product no. AD0077, as an alternative a Terbium-cryptate-labeled anti-mouse IgG antibody from Cisbio Bioassays can be used]) in an aqueous EDTA-solution (100 mM EDTA, 0.2% (w/v) bovine serum albumin in 100 mM HEPES pH 7.5).
The resulting mixture was incubated 1 h at 22° C. to allow the formation of complex between the phosphorylated biotinylated peptide and the detection reagents. Subsequently the amount of phosphorylated substrate was evaluated by measurement of the resonance energy transfer from the Eu-chelate to the streptavidine-XL. Therefore, the fluorescence emissions at 620 nm and 665 nm after excitation at 350 nm were measured in a TR-FRET reader, e.g. a Rubystar (BMG Labtechnologies, Offenburg, Germany) or a Viewlux (Perkin-Elmer). The ratio of the emissions at 665 nm and at […] was taken as the measure for the amount of phosphorylated substrate. The data were normalised (enzyme reaction without inhibitor=0% inhibition, all other assay components but no enzyme=100% inhibition).

HeLa cells = test: Proliferation assay HeLa; type: cell-based, human; settings: 4 days, crystal violet, read-out: Inhibition of HeLa cell proliferation IC50
Method: Cultivated tumour cells (HeLa, human cervical tumour cells, ATCC CCL-2; NCI-H460, human non-small cell lung carcinoma cells, ATCC HTB-177; A2780, human ovarian carcinoma cells, ECACC #93112519; DU 145, hormone-independent human prostate carcinoma cells, ATCC HTB-81; HeLa-MaTu-ADR, multidrug-resistant human cervical carcinoma cells, EPO-GmbH Berlin; Caco-2, human colorectal carcinoma cells, ATCC HTB-37; B16F10, mouse melanoma cells, ATCC CRL-6475) were plated at a density of 5,000 cells/well (DU145, HeLa-MaTu-ADR), 3,000 cells/well (NCI-H460, HeLa), 2,500 cells/well (A2780), 1,500 cells/well (Caco-2), or 1,000 cells/well (B16F10) in a 96-well multititer plate in 200 μL of their respective growth medium supplemented 10% fetal calf serum. After 24 hours, the cells of one plate (zero-point plate) were stained with crystal violet (see below), while the medium of the other plates was replaced by fresh culture medium (200 μl), to which the test substances were added in various concentrations (0 μM, as well as in the range of 0.001-10 μM). The cells were incubated for 4 days in the presence of test substances. Cell proliferation was determined by staining the cells with crystal violet: the cells were fixed by adding 20 μl/measuring point of an 11% glutaric aldehyde solution for 15 minutes at room temperature. After three washing cycles of the fixed cells with water, the plates were dried at room temperature. The cells were stained by adding 100 μl/measuring point of a 0.1% crystal violet solution (pH 3.0). After three washing cycles of the stained cells with water, the plates were dried at room temperature. The dye was dissolved by adding 100 μl/measuring point of a 10% acetic acid solution. The extinction was determined by photometry at a wavelength of 595 nm. The change of cell number, in percent, was calculated by normalization of the measured values to the extinction values of the zero-point plate (=0%) and the extinction of the untreated (0 μm) cells (=100%). The IC50 values (inhibitory concentration at 50% of maximal effect) were determined by means of a 4 parameter fit. Non-adherent MOLM-13 human acute myeloid leukemia cells (DSMZ ACC 554) were seeded at a density of 5,000 cells/well in a 96-well multititer plate in 100 μL of growth medium supplemented 10% fetal calf serum. After 24 hours, cell viability of one plate (zero-point plate) was determined with the Cell Titre-Glo Luminescent Cell Viability Assay (Promega), while 50 μL of test compound containing medium was added to the wells of the other plates (final concentrations in the range of 0.001-1 μM and DMSO controls). Cell viability was assessed after 72-hour exposure with the Cell Titre-Glo Luminescent Cell Viability Assay (Promega). IC50 values (inhibitory concentration at 50% of maximal effect) were determined by means of a 4 parameter fit on measurement data which were normalized to vehicle (DMSO) treated cells (=100%) and measurement readings taken immediately before compound exposure (=0%).

| IC50 (CDK2/CycE) | IC50 (HeLa cells; Homo sapiens, HeLa, 96 h) | IC50 (HeLa cells) | SMILES |
| --- | --- | --- | --- |
| 2120 nM | 94 nM |  | CS(=N)(=O)Cc1cc2nc(c1)OCCOc1cc(F)ccc1-c1cc(ncc1F)N2 (racemic) [Example 11, (rac)-14,18-difluoro-7-[(S-methylsulfonimidoyl)methyl]-2,3-dihydro-10H-9,5-(azeno)-11,15-(metheno)-1,4,10,12-benzodioxadiazacycloheptadecine] |
| 43.7 nM | 105 nM |  | NCCS(=O)(=O)Cc1cc2nc(c1)OCCCOc1cc(F)ccc1-c1cc(ncc1F)N2 [Example 26, 2-({[15,19-difluoro-3,4-dihydro-2H,11H-10,6-(azeno)-12,16-(metheno)-1,5,11,13-benzodioxadiazacyclooctadecin-8-yl]methyl}sulfonyl)ethanamine] |
| 890 nM | 281 nM |  | CSCc1cc2nc(c1)OCCCCOc1cc(F)ccc1-c1cc(ncc1F)N2 [Example 12, 16,20-Difluoro-9-[(methylsulfanyl)methyl]-2,3,4,5-tetrahydro-12H-11,7-(azeno)-13,17-(metheno)-1,6,12,14-benzodioxadiazacyclononadecine] |
| 32.1 nM | 4 nM |  | C[S+]([O-])Cc1cc2nc(c1)OCCCOc1cc(F)ccc1-c1cc(ncc1F)N2 (racemic) [Example 4, (rac)-15,19-Difluoro-8-[(methylsulfinyl)methyl]-3,4-dihydro-2H,11H-10,6-(azeno)-12,16-(metheno)-1,5,11,13-benzodioxadiazacyclooctadecine] |
| 20 nM | 2 nM |  | CS(=N)(=O)Cc1cc2nc(c1)OCCCOc1cc(F)ccc1-c1cc(ncc1F)N2 (racemic) [Example 5, (rac)-15,19-Difluoro-8-[(S-methylsulfonimidoyl)methyl]-3,4-dihydro-2H,11H-10,6-(azeno)-12,16-(metheno)-1,5,11,13-benzodioxadiazacyclooctadecine] |

Further lines, the molecule ahead of its results:

| SMILES | IC50 (CDK2/CycE) | IC50 (HeLa cells; Homo sapiens, HeLa, 96 h) | IC50 (HeLa cells) |
| --- | --- | --- | --- |
| CS(=O)(=O)N=S(C)(=O)Cc1cc2nc(c1)OCCCOc1cc(F)ccc1-c1cc(ncc1F)N2 (racemic) [Example 22, (rac)-N-[{[15,19-difluoro-3,4-dihydro-2H,11H-10,6-(azeno)-12,16-(metheno)-1,5,11,13-benzodioxadiazacyclooctadecin-8-yl]methyl}(methyl)oxido-λ^6-sulfanylidene]methanesulfonamide] | 195 nM | 17 nM |  |
| CCOC(=O)N=S(C)(=O)Cc1cc2nc(c1)OCCCOc1cc(F)ccc1-c1cc(ncc1F)N2 (racemic) [Example 20, (rac)-ethyl [{[15,19-difluoro-3,4-dihydro-2H,11H-10,6-(azeno)-12,16-(metheno)-1,5,11,13-benzodioxadiazacyclooctadecin-8-yl]methyl}(methyl)oxido-λ^6-sulfanylidene]carbamate] | 44.6 nM | 26 nM |  |
| CS(=N)(=O)Cc1cc2nc(c1)OCCCOc1cc(F)ccc1-c1cc(ncc1F)N2 (single isomer, unassigned; enantiomer 2) [Example 7, 15,19-Difluoro-8-[(S-methylsulfonimidoyl)methyl]-3,4-dihydro-2H,11H-10,6-(azeno)-12,16-(metheno)-1,5,11,13-benzodioxadiazacyclooctadecine; Enantiomer 2] | 50.4 nM |  | 31 nM |
| CS(=N)(=O)Cc1cc2cc(c1)OCCCCOc1cc(F)ccc1-c1nc(ncc1F)N2 (racemic) [Example 1, (rac)-16,20-Difluoro-9-[(S-methylsulfonimidoyl)methyl]-2,3,4,5-tetrahydro-12H-13,17-(azeno)-11,7-(metheno)-1,6,12,14-benzodioxadiazacyclononadecine] | 216 nM | 8 nM |  |
| CSCc1cc2nc(c1)OCCCOc1cc(F)ccc1-c1cc(ncc1F)N2 [Example 3, 15,19-Difluoro-8-[(methylsulfanyl)methyl]-3,4-dihydro-2H,11H-10,6-(azeno)-12,16-(metheno)-1,5,11,13-benzodioxadiazacyclooctadecine] | 128 nM | 86 nM |  |
| CS(=N)(=O)Cc1cc2nc(c1)OCCCOc1cc(F)ccc1-c1cc(ncc1F)N2 (single isomer, unassigned; enantiomer 1) [Example 6, 15,19-Difluoro-8-[(S-methylsulfonimidoyl)methyl]-3,4-dihydro-2H,11H-10,6-(azeno)-12,16-(metheno)-1,5,11,13-benzodioxadiazacyclooctadecine; Enantiomer 1] | 38.3 nM | 31 nM |  |
| CS(=O)(=O)Cc1cc2nc(c1)OCCCOc1cc(F)ccc1-c1cc(ncc1F)N2 [Example 8, 15,19-difluoro-8-[(methylsulfonyl)methyl]-3,4-dihydro-2H,11H-10,6-(azeno)-12,16-(metheno)-1,5,11,13-benzodioxadiazacyclooctadecine] | 33.6 nM | 12 nM |  |
